Source: PMC6753678, “Fueling Open Innovation for Malaria Transmission-Blocking Drugs: Hundreds of Molecules Targeting Early Parasite Mosquito Stages” (Frontiers in Microbiology, 2019)
pIC50: −log10 of the molar value.

What was measured:
[1] = tested on: P. falciparum late stage (stages IV-V) gametocytes; experiment: P. falciparum late stage gametocyte ATP depletion assay (Pf GC-ATP); conditions: 1: YES; 0: NO; >10-fold selectivity over cytotoxicity
[2] = tested on: P. falciparum late stage (stages IV-V) gametocytes; parameters: method as in Almela et al 2016; conditions: P. falciparum late stage gametocyte ATP assay, TCAMS screen; ref Almela et al 2016; read-out: Pf GCT ATP IC50; cited from earlier work
[3] = tested on: HepG2 cells; experiment: HepG2 cytotoxicity assay; conditions: HepG2 cytotoxicity unified across screens; >25 set to 25.00
How it was run: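 HepG2 cells, 2,500 per well in MEM with 10% FBS and 1% NEAA, exposed to compounds for 48 h at 37°C, 5% CO2. Viability read by fluorescence; percent inhibition relative to 50 μM doxorubicin and DMSO controls.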

SMILES | Is compound selective in assay? Pf GC-ATP active? [1] | pIC50 [2] | Unified cytotox [3]
CCCCN1CCN(CCCCNc2c3ccccc3nc3ccccc23)CC1.Cl [TCMDC-137569] | 1 (1: YES) | 5.92 | 12.68 µM
CCCCCCCN1CC[C@@H](CCCc2ccnc3ccc(OCCCCN/C(N)=N/O)cc23)[C@@H](CC)C1.O=C(O)C(=O)O [TCMDC-139839] | 1 (1: YES) | 6.33 | 17.20 µM
CCNCc1cccc(-c2ccc3ccnc(N)c3c2)c1 [TCMDC-136869] | 0 (0: NO) | 5.78 | 12.50 µM
O=C(C1CC1c1ccccc1)N(Cc1ccc(-c2ccc(CNCCc3ccccc3)cc2)cc1)C1CCNCC1.O=C(O)C(F)(F)F (stereo not drawn) [TCMDC-141443] | 1 (1: YES) | 6.41 | 6.70 µM
CCn1c(-c2nonc2N)nc2c(-c3cccc(NC(=O)Nc4ccccc4OC)c3)ncc(OCCCN)c21.O=C(O)C(F)(F)F [TCMDC-136190] | 1 (1: YES) | 6.36 | 5.90 µM
C[C@H]1CN(Cc2cccc(-c3cc(CNC(=O)c4cccc(CC5CCN(C)CC5)c4)ccc3F)c2)CCN1C [TCMDC-136349] | 0 (0: NO) | 6.07 | 6.97 µM
COc1ccc2c(=NN=Cc3ccc(OC)c4ccccc34)cc(C)[nH]c2c1 [TCMDC-142218] | 1 (1: YES) | 6.11 | 7.86 µM
CN(C)CCNC(=O)c1ccc(-c2cnc3ccc(NCc4ccc(Cl)c(Cl)c4)nn23)cc1 [TCMDC-136678] | 1 (1: YES) | 6.48 | 16.66 µM
Cc1cccc2nc(-c3ccc(-c4ccc(CN5CCC(CCN6CCCCC6)CC5)cc4)cc3)[nH]c12.O=C(O)C(F)(F)F [TCMDC-133929] | 1 (1: YES) | 6.57 | 3.70 µM
CCCCN(CCCC)CCCCNc1c2ccccc2nc2ccccc12.Cl [TCMDC-137461] | 1 (1: YES) | 6.26 | 19.00 µM
CCCCCCCN1CC[C@@H](CCCc2ccnc3ccc(OCCC4CCNCC4)cc23)[C@@H](CC)C1.Cl [TCMDC-139819] | 1 (1: YES) | 6.38 | 4.50 µM
Nc1cc(/C=C/c2ccc([N+](=O)[O-])s2)nc2ccccc12 [TCMDC-142296] | 1 (1: YES) | 6.22 | 7.60 µM
CCc1c(CCNCCCCCCNCCc2ccc(Br)cc2)ccc(OC)c1OC.Cl [TCMDC-132045] | 1 (1: YES) | 6.66 | 3.20 µM
CN(C)CCN(Cc1ccccc1-c1ccc(CNCCc2ccccc2)cc1)C(=O)c1ccccc1.O=C(O)C(F)(F)F [TCMDC-140532] | 0 (0: NO) | 6.11 | 7.54 µM
CCN(Cc1ccc(-c2ccc(C(F)(F)F)cc2)cc1)C(=O)Cn1c(SCc2cccc(F)c2F)cc(=O)c2cc(CN3CCCCC3)ccc21.Cl [TCMDC-141592] | 0 (0: NO) | 5.63 | 4.20 µM
COc1cc2ccccc2cc1OCCCN1CCN(CC(c2ccc(F)cc2)N2CCN(C(C)C)CC2)CC1.Cl (stereo not drawn) [TCMDC-135496] | 0 (0: NO) | 5.90 | 3.72 µM
O=C(/C=C/c1ccc(Cl)c(Cl)c1)NCCCCCN1CCCC(CNS(=O)(=O)c2cccc(C(F)(F)F)c2)C1 (stereo not drawn) [TCMDC-139597] | 0 (0: NO) | 5.06 | 3.80 µM
Fc1ccc2[nH]c(-c3ccc(-c4ccc(CN5CCC(CCN6CCCCC6)CC5)cc4)s3)nc2c1.O=C(O)C(F)(F)F [TCMDC-133932] | 1 (1: YES) | 6.85 | 3.79 µM
CCN(CC)CCCNc1ncc2c(-c3ccc(NC(=O)Nc4cc(C(F)(F)F)ccc4F)cc3)nn(C)c2n1.O=C(O)C(F)(F)F [TCMDC-141583] | 0 (0: NO) | 5.46 | 9.50 µM
CN1CCN(CCCN(Cc2cccc(-c3cccc(CNC4CCCC4)c3)c2)C(=O)CCC2CCCC2)CC1.O=C(O)C(F)(F)F [TCMDC-140555] | 0 (0: NO) | 6.09 | 7.50 µM
O=C(Nc1ccc(Oc2ccccc2)cc1)N(CCN1CCCC1)Cc1ccc(-c2ccc(CN3CCNCC3)cc2)cc1.O=C(O)C(F)(F)F [TCMDC-139652] | 0 (0: NO) | 5.99 | 7.08 µM

SMILES | Is compound selective in assay? Pf GC-ATP active? [1] | pIC50 [2] | Unified cytotox [3]
NCc1ccc(CNCc2cccc(-c3ccc(-c4nc5ccccc5[nH]4)cc3)c2)cc1.O=C(O)C(F)(F)F [TCMDC-132815] | 1 (1: YES) | 6.32 | 21.82 µM
CN(C)CCCNc1nccc(N(C)c2ccc(NC(=O)Nc3cc(C(F)(F)F)ccc3F)cc2)n1.O=C(O)C(F)(F)F [TCMDC-141633] | 1 (1: YES) | 6.00 | 17.30 µM
CC(C)CNCc1cccc(-c2cccc(CN(CCCN3CCN(C)CC3)C(=O)/C=C/c3ccccc3)c2)c1.O=C(O)C(F)(F)F [TCMDC-140541] | 1 (1: YES) | 6.25 | 7.47 µM
CN1CCC(C(=O)N(Cc2ccc(-c3ccc(CNCCc4ccccc4)cn3)cc2)C2CCN(Cc3ccccc3)CC2)CC1.O=C(O)C(F)(F)F [TCMDC-141552] | 1 (1: YES) | 6.05 | 9.27 µM
COc1cc2ccccc2c(OC)c1CNCCCCCCNCc1c(OC)cc2ccccc2c1OC.CS(=O)(=O)O [TCMDC-137843] | 1 (1: YES) | 6.49 | 4.25 µM
CCc1cc(COc2ccc(CNCCC(C)C)cc2I)c(OCc2ccccc2)c(COc2ccc(CNCCC(C)C)cc2I)c1.Cl [TCMDC-137255] | 0 (0: NO) | 5.99 | 5.80 µM
CC(C)CNCc1ccc(-c2ccc(CN(CCCN3CCN(C)CC3)C(=O)/C=C/c3ccccc3)cc2)cc1.O=C(O)C(F)(F)F [TCMDC-140546] | 0 (0: NO) | 6.00 | 6.99 µM
COc1ccc(-c2cnn3ccc(Nc4cc(OC)c(OC)c(OC)c4)nc23)cc1OC [TCMDC-134383] | 0 (0: NO) | 5.79 | 12.90 µM
CC(C)CNCc1ccc(-c2ccc(CN(CCCN3CCN(C)CC3)C(=O)CCC3CCCC3)cc2)cc1.O=C(O)C(F)(F)F [TCMDC-140559] | 0 (0: NO) | 6.27 | 5.39 µM
COc1ccc(CNCCc2cccs2)cc1-c1cccc(S(=O)(=O)NCCN2CCCC2)c1.O=C(O)C(F)(F)F [TCMDC-132479] | 0 (0: NO) | 5.77 | 11.40 µM
CCCCCOc1ccc(C(=NC)N(CCCCC)CCCCC)c2ccccc12.I [TCMDC-137703] | 0 (0: NO) | 6.05 | 6.30 µM
CS(=O)(=O)O.FC(F)(F)COc1c(CCNCCCCNCCc2ccc3ccccc3c2OCC(F)(F)F)ccc2ccccc12 [TCMDC-137169] | 1 (1: YES) | 7.00 | 2.80 µM
CCN(CC)CCOc1ccc(C(O)(C#CC(O)(c2ccc(OCCN(CC)CC)cc2)c2ccc([N+](=O)[O-])cc2)c2ccc([N+](=O)[O-])cc2)cc1 (stereo not drawn) [TCMDC-137201] | 1 (1: YES) | 6.66 | 6.20 µM
CC(Cc1ccc(COc2ccc(CC(CO)NCCc3cccc(Cl)c3)cc2)cc1)NCCc1cccc(Cl)c1.Cl (stereo not drawn) [TCMDC-139844] | 0 (0: NO) | 5.86 | 3.50 µM
CC(C)CNCc1ccc(-c2cccc(CN(CCN(C)C)C(=O)CCC3CCCC3)c2)cc1.O=C(O)C(F)(F)F [TCMDC-140553] | 1 (1: YES) | 6.27 | 5.50 µM
CC(C)CNCc1cccc(-c2ccc(CN(CCCN3CCN(C)CC3)C(=O)/C=C/c3ccccc3)cc2)c1.O=C(O)C(F)(F)F [TCMDC-140545] | 1 (1: YES) | 6.20 | 6.65 µM
CCN(CC)CCCNc1nccc(N2CCc3ncnc(Nc4ccc(OCc5cccc(F)c5)c(Cl)c4)c3C2)n1 [TCMDC-135406] | 0 (0: NO) | 6.14 | 5.58 µM
O=C(Nc1ccc(Cl)c(Cl)c1)Nc1ccccc1N1CCNCC1.O=C(O)C(F)(F)F [TCMDC-133727] | 0 (0: NO) | 5.13 | 11.20 µM
Cl.c1ccc2c(NCCCCCCNc3ccnc4ccccc34)ccnc2c1 [TCMDC-137913] | 1 (1: YES) | 6.02 | 16.40 µM
COc1cc(CCNC(=N)/C=C/c2ccc(Cl)cc2)ccc1Cl.Cl [TCMDC-137457] | 1 (1: YES) | 6.55 | 14.00 µM
